Experimental data: paper PMC11649115, “In vitro safety evaluation of dopamine D3R antagonist, R-VK4-116, as a potential medication for the treatment of opioid use disorder” (PLOS ONE, 2024)
Where “and” joins values, the source holds several entries; their conditions need not be identical. Identical values can stand only once. Like-named read-outs stand apart in the source and are kept apart here.

Key:
D3R = target: D3R; set-up: method as in PMID 31526003; settings: read-out: binding affinity for D3R (Ki); cited from earlier work
rat hepatocytes = experiment: Metabolic stability in hepatocyte; settings: rat hepatocytes
Experimental: (§2) CYP3A4 substrate Midazolam (10 μM) was prepared and incubated in the same manner. […] In addition, in vitro half-life (t1/2, min) and intrinsic clearance (CLint, μl/min/10^6 cells) were calculated [10, 11].

[1] = Metabolic stability in hepatocyte; settings: Sprague Dawley, rat, hepatocytes in suspension
Experimental: as §2

plasma proteins = experiment: Plasma protein binding, Sephadex G-25 gel filtration; type: in vitro ADME, human; settings: human, plasma, human plasma, nominal 1 μM; read-out: % Bound, Mean ± SD (converted)
Experimental: (§1) The gel filtration used solid-phase extraction columns containing hydrated gel filtration beads (Sephadex G-25). […] In this method, the amount of analyte accompanying the proteins (i.e., protein-bound R-VK4-116) before and after filtration was assayed for analyte concentration by LC-MS/MS.

human plasma proteins = experiment: as above; type: in vitro ADME; settings: human plasma
Experimental: as §1

[2] = as above; type: in vitro ADME, human; settings: human, plasma; for fraction unbound at 2 h, 0.5 μM: human plasma, nominal 0.5 μM
Experimental: as §1

OAT1 = target: T1, OAT1 (Homo sapiens, UniProt Q4U2R8); experiment: Transporter mediated assay (substrate/inhibitor), MDCK-II cells; type: in vitro ADME
T1 construct: expressed in transfected cells; host or cells: MDCK-II cells
T1 sequence (Q4U2R8 1-563): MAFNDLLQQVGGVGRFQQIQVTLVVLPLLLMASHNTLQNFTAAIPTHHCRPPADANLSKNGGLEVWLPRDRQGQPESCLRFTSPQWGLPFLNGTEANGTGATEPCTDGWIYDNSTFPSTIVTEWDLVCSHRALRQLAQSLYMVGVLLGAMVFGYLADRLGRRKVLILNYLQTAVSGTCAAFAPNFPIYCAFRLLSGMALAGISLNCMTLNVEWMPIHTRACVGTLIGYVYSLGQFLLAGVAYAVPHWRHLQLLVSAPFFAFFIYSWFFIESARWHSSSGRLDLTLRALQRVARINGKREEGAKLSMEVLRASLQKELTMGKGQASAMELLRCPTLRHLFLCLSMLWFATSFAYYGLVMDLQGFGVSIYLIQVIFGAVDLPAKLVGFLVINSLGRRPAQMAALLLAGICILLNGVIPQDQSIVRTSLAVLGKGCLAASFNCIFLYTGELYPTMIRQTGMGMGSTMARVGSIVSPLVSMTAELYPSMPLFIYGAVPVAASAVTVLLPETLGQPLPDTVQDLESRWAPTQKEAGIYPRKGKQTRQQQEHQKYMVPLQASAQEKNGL
Experimental: The MDCK-II cells were treated to express the transporter of interest. The transport of each probe substrate was determined by radiometric detection (Fig 1 in S1 File). […] For the uptake assay, the net transporter-mediated uptake-rate (V) of the substrate by each SLC transporter was calculated as follows: Transporter–mediatedupdaterate(pmol/min/cm^2)=(Cellularaccumulationincellsexpressingthetransporter)−(Meancellularaccumulationincontrolcells)/Surfacearea×incubationtime

MATE2-K = target: T2, MATE2-K (Homo sapiens, UniProt Q86VL8); experiment: as above; type: in vitro ADME
T2 construct: expressed in transfected cells; host or cells: MDCK-II cells
T2 sequence (Q86VL8 1-566 isoform Q86VL8-3): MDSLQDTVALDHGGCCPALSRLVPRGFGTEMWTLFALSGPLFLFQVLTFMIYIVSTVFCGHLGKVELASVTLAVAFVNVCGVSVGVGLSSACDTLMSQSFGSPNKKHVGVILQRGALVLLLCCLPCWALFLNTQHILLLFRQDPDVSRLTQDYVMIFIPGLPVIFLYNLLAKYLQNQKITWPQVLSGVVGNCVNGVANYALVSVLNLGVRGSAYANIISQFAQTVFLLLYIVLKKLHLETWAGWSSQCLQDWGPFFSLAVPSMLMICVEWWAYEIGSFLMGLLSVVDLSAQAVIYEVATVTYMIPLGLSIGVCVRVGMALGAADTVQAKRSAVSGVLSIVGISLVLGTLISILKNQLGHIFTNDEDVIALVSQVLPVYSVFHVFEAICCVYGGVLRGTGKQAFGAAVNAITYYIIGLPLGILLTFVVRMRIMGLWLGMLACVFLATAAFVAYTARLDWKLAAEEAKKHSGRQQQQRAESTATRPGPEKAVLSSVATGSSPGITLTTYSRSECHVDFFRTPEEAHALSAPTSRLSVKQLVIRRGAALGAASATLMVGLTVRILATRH
Experimental: The MDCK-II cells were treated to express the transporter of interest. […] For the uptake assay, the net transporter-mediated uptake-rate (V) of the substrate by each SLC transporter was calculated as follows: Transporter–mediatedupdaterate(pmol/min/cm^2)=(Cellularaccumulationincellsexpressingthetransporter)−(Meancellularaccumulationincontrolcells)/Surfacearea×incubationtime
Fold of activity and percent inhibition were determined as follows: Foldofactivity=(Meanuptakerate)transporterexpressingcells/(Meanuptakerate)controlcells Percentinhibition=100−100×(Transport‐mediatedupdaterate)withinhibitor/(Transport‐mediatedupdaterate)vehiclecontrol

[3] = Stability in the absence of hepatocytes; settings: no hepatocytes
Experimental: as §2

## CCc1cc(Cl)c(OC)c(N2CCN(CC(O)CCNC(=O)c3cc4ccccc4[nH]3)CC2)c1 (stereo not shown) [R-VK4-116, N-(4-(4-(3-chloro-5-ethyl-2-methoxyphenyl)piperazin-1-yl)-3-hydroxybutyl)-1H-indole-2-carboxamide]
D3R
  Ki: 7.4 nM
Rat hepatocytes; 0.5 μM, 0 min
  % remaining Vs T = 0 min: 100.0%
Rat hepatocytes; 0.5 μM, 30 min
  % remaining Vs T = 0 min: 85.0%
Rat hepatocytes; 0.5 μM, 60 min
  % remaining Vs T = 0 min: 55.6%
Rat hepatocytes; 0.5 μM, 90 min
  % remaining Vs T = 0 min: 42.4%
Rat hepatocytes; 0.5 μM, 120 min
  % remaining Vs T = 0 min: 42.5%
Rat hepatocytes; 10 μM, 0 min
  % remaining Vs T = 0 min: 100.0%
Rat hepatocytes; 10 μM, 30 min
  % remaining Vs T = 0 min: 95.8%
Rat hepatocytes; 10 μM, 60 min
  % remaining Vs T = 0 min: 92.5%
Rat hepatocytes; 10 μM, 90 min
  % remaining Vs T = 0 min: 66.7%
Rat hepatocytes; 10 μM, 120 min
  % remaining Vs T = 0 min: 64.6%
[1]
  half-life at 0.5 μM: 1.44 h
  half-life at 10 μM: 2.82 h
  hepatocyte CLint at 0.5 μM: 16 µL/min/1e6 cells
  hepatocyte CLint at 10 μM: 8.2 µL/min/1e6 cells
Plasma proteins
  fraction unbound at 2 h, 1 μM: 0.141
Human plasma proteins; nominal 0.5 μM
  % Bound: 96.9%
  Ratio [R-VK4-116] Before Filtration / Eluate, Mean ± SD: 0.988 ± 0.13
  [R-VK4-116] Before Filtration: 0.550 µM and 0.597 µM and 0.598 µM
  [R-VK4-116] In Sephadex G-25 Eluate: 0.520 µM and 0.715 µM and 0.557 µM
Human plasma proteins; nominal 1 μM
  % Bound: 92.5% and 81.6% and 83.7%
  Ratio [R-VK4-116] Before Filtration / Eluate: 1.50 and 1.62 and 1.55
  Ratio [R-VK4-116] Before Filtration / Eluate, Mean ± SD: 1.56 ± 0.06
  [R-VK4-116] Before Filtration: 0.923 µM and 0.995 µM and 1.02 µM
  [R-VK4-116] In Sephadex G-25 Eluate: 0.614 µM and 0.615 µM and 0.657 µM
[2]; read-out: % Bound (converted)
  fraction unbound at 2 h, 0.5 μM: 0.026
[2]; read-out: % Bound, Mean ± SD (converted)
  fraction unbound at 2 h, 0.5 μM: 0.028
[2]; rat, dog, range over human, rat and dog plasma, read-out: bound to plasma proteins
  fraction unbound at 2 h: 0.07 to 0.17
OAT1; OAT1, 1 μM, transporter cells vs control cells
  fold difference in mean uptake rate (substrate test): < 2 fold
OAT1; OAT1, 0.1% BSA, 10 μM
  Inhibition (%): no statistically significant inhibition
OAT1; human, polarized monolayer of MDCK-II cells expressing OAT1, OAT1, 0.1% BSA, 10 μM
  inhibition at 10 µM: 8.97 ± 1.58%
MATE2-K; 1 μM, transporter cells vs control cells
  fold difference in mean uptake rate (substrate test): < 2 fold
MATE2-K; human, polarized monolayer of MDCK-II cells expressing MATE2-K, 0.1% BSA, 10 μM
  inhibition at 10 µM: 37.8 ± 9.26%
[3]; 0.5 μM, 0 min
  % remaining Vs T = 0 min: 100.0%
[3]; 0.5 μM, 30 min
  % remaining Vs T = 0 min: 86.2%
[3]; 0.5 μM, 60 min
  % remaining Vs T = 0 min: 81.6%
[3]; 0.5 μM, 90 min
  % remaining Vs T = 0 min: 79.9%
[3]; 0.5 μM, 120 min
  % remaining Vs T = 0 min: 78.4%
[3]; 10 μM, 0 min
  % remaining Vs T = 0 min: 100.0%
[3]; 10 μM, 30 min
  % remaining Vs T = 0 min: 92.9%
[3]; 10 μM, 60 min
  % remaining Vs T = 0 min: 87.5%
[3]; 10 μM, 90 min
  % remaining Vs T = 0 min: 87.9%
[3]; 10 μM, 120 min
  % remaining Vs T = 0 min: 77.3%
